Experimental data: US20220380375A1, “SUBSTITUTED AROMATIC FUSED RING DERIVATIVE AND COMPOSITION COMPRISING SAME, AND USE THEREOF” (Shenzhen TargetRx, Inc., priority 2019, published 2022)
Marks after values point to notes of the source that are not given here.

How the values were obtained:
[1] = tested on: Ba/F3 KIF5B-RET cell line tumor model; experiment: Anti-tumor effect assay in Ba/F3 KIF5B-RET cell line tumor model (allograft); type: in vivo, female NPSG mice; conditions: for Tumor volume (x ± S), Day 0 of administration: 10 mg/kg p.o. QD × 14, day 0 (baseline); for TGI (%), Day 14 of administration / Tumor volume (x ± S), Day 14 of administration: 10 mg/kg p.o. QD × 14, day 14
From the text: (§1) The efficacy of compounds of the present disclosure in female NPSG mouse allograft models of two B-cell lymphoma cell lines Ba/F3 KIF5B-RET and Ba/F3 KIF5B-RET^G810R was verified.
(§2) Assay animals: Female NPSG mice, 6-8 weeks old (age of mice at the time of tumor cell inoculation), weighing 18-20 g, 60 mice, purchased from Shanghai Jihui Laboratory Animal Care Co., Ltd.
(§3) Assay methods: 1) Ba/F3 KIF5B-RET and Ba/F3 KIF5B-RET^G810R cells were respectively resuscitated and Cultured in vitro, and 3×10^7 cells of each type were obtained. 2) 60 female NPSG mice aged 6-8 weeks were adaptively bred for 1 week and then weighed. 4) After inoculation, tumor volume and body weight were measured once a week. When average tumor volume reached about […], mice inoculated with each type of Ba/F3 cells were randomly divided into 7 groups according to tumor volume and body weight, with 3 mice in each group. The administration was started immediately after grouping. The date of start of administration was regarded as day 0. Informations on administration and grouping were shown in Tables 5 and 6.5) After the start of the administration, the body weight and tumor volume of mice were measured twice a week. 6) After the end of the administration, the assay was over.
(§4) Assay observation and data collection: After tumor inoculation, morbidity and death of animals were observed every working day. Daily observation included tumor growth and effects of drugs on laboratory animals, such as changes in activity, changes in feeding and drinking, weight loss, changes in appearance of hair and eye, death and other clinical symptoms. Formula for calculating tumor volume is: tumor volume (mm^3)=½×(a×b^2) (wherein a represents the long diameter and b represents the short diameter)
(§5) Relative tumor inhibition rate TGI (%): TGI %=(1−T/C)×100%. T/C % is relative tumor proliferation rate, that is, a percentage value of relative tumor volume between treatment group and control group at a certain point in time. T and C are relative tumor volume (RTV, that is, the […] tumor volume at this time point and tumor volume at day 0) of treatment group and control group at a certain point in time, respectively.
(§6) Statistical analysis: For pairwise comparison, a T-Test analysis method was used, and for comparison of three or more groups, a One-Way ANOVA method was used. For comparison of potential synergistic effects, a Two-way ANOVA was used. SPSS 24.0 was used for all data. A p value less than 0.05 was considered a significant difference.

[2] = tested on: Ba/F3 KIF5B-RET^G810R cell line tumor model; experiment: Anti-tumor effect assay in Ba/F3 KIF5B-RET^G810R cell line tumor model (allograft); type: in vivo, female NPSG mice; conditions: for Tumor volume (x ± S), Day 0 of administration / Tumor volume (x ± S), Day 13 of administration / TGI (%), Day 13 of administration: Ba/F3 KIF5B-RET^G810R model; for Tumor volume (x ± S), Day 0 of administration: 25 mg/kg p.o. QD × 13, day 0 (baseline); for Tumor volume (x ± S), Day 13 of administration / TGI (%), Day 13 of administration: 25 mg/kg p.o. QD × 13, day 13; for TGI (%), Day 13 of administration: TGI more than 100% = decrease in tumor volume; for relative tumor inhibition rate TGI (%): day 13 of administration, AD80 group 25 mg/kg
From the text: as §1, §2, §3, §4, §5, §6

[3] = Safety assay (body weight, tolerability) in Ba/F3 KIF5B-RET^G810R cell line tumor model; type: in vivo; conditions: for Number of animals at the beginning/end of assay: 25 mg/kg p.o. QD × 13; for Average weight g (x ± S), Day 0 of administration: 25 mg/kg p.o. QD × 13, day 0 (baseline); for Average weight g (x ± S), Day 13 of administration / Weight change rate (%), Day 13 of administration: 25 mg/kg p.o. QD × 13, day 13; for tolerability (weight loss, drug withdrawal, drug toxicity): during the treatment
Description: as §3, §4

[4] = Safety assay (body weight, tolerability) in Ba/F3 KIF5B-RET cell line tumor model; type: in vivo; conditions: for Number of animals at the beginning/end of assay: 10 mg/kg p.o. QD × 14; for Average weight g (x ± S), Day 0 of administration: 10 mg/kg p.o. QD × 14, day 0 (baseline); for Average weight g (x ± S), Day 14 of administration / Weight change rate (%), Day 14 of administration: 10 mg/kg p.o. QD × 14, day 14; for tolerability (weight loss, drug withdrawal, drug toxicity): during the treatment
Description: as §3, §4

RET V804M = molecular target: T1, RET V804M (Homo sapiens, UniProt P07949, V804M); experiment: Inhibition of kinase, RET V804M (HTRF KinEASE-TK); type: biochemical
T1 construct: purchased Signalchem R02—12GG
T1 sequence (P07949 29-1114 V804M): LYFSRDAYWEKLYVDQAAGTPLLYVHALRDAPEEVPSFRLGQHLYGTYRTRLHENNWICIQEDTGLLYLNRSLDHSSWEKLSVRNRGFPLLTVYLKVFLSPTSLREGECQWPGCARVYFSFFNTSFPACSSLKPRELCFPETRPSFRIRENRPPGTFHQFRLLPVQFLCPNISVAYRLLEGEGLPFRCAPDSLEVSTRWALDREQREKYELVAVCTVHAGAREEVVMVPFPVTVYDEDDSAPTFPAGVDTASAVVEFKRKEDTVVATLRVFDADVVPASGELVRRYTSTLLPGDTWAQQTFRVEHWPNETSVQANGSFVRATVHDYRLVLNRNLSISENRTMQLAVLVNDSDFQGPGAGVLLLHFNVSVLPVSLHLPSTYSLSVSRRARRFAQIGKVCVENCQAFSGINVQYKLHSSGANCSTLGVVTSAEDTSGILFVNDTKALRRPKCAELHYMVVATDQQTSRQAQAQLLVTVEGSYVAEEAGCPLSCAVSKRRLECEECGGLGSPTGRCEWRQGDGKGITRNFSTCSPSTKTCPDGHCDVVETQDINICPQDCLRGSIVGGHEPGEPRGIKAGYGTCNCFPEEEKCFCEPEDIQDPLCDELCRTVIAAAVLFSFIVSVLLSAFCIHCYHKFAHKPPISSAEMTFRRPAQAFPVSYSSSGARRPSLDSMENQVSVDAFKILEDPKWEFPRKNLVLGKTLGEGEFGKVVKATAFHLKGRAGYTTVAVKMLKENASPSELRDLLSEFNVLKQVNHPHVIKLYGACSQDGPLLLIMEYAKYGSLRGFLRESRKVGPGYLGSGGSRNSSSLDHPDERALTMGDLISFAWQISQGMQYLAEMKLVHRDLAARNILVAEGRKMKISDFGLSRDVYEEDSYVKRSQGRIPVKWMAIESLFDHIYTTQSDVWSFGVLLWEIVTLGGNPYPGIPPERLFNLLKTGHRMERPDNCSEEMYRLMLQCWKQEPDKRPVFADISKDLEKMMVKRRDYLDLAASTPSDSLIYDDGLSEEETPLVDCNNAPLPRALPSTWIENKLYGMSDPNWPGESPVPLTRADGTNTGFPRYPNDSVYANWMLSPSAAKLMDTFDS
Description: (§7) Ret wt (Carna, Cat. No. 08-159-10 ug), RET (V804M), Active (Signalchem. Cat. No. R02—12GG), HTRF KinEASE-TK kit (Cisbio, Cat. No.62TK0PEC), CEP-32496 (MCE, Cat. No. HY-15200), ATP (Sigma. Cat. No. A7699), DMSO (Sigma, Cat. No. D8418-1L), DTT (Sigma, Cat. No. D0632), MgCl2(Sigma, Cat. No. M1028), 384-well plate (Labcyte, Cat. No. P-05525-BC).
(§8) Formulation of compound: The test compounds were dissolved in DMSO to obtain 10 mM stock solutions, which were then serially diluted 3-fold in DMSO to obtain 10 concentrations. At the time of addition, the compound was further diluted 10-fold with buffer.
(§9) In 5×kinase buffer A, Ret wt or RET V804M kinase was mixed with different concentrations of compounds prepared by pre-dilution for 10 minutes. Each concentration was tested in duplicate. The corresponding substrate and ATP were added, and reaction was performed at room temperature for 20 minutes (negative and positive controls were provided: the negative control was a blank control, and the positive control was CEP-32496 (Agerafenib)). After completion of the reaction, detection reagents (reagents in the HTRF KinEASE-TK kit) were added. After incubating for 30 minutes at room temperature, enzyme activity in the presence of various concentrations of the compounds of the present disclosure was determined by Envision microplate reader, and inhibitory activity of different concentrations of the compounds on enzyme activity was calculated. The inhibitory activity of different concentrations of the compounds on enzyme activity was fitted by Graphpad 5.0 software, and the IC50 value was calculated.

Ret wt = molecular target: T2, Ret wt (Homo sapiens, UniProt P07949); experiment: Inhibition of kinase, Ret wt (HTRF KinEASE-TK); type: biochemical
T2 construct: purchased Carna 08-159-10 ug
T2 sequence (P07949 29-1114): as the sequence (P07949 29-1114 V804M) above, with M776V counted along it
Description: as §7, §8, §9

Structure (SMILES) | Tumor volume (x ± S), Day 0 of administration [1] [mm^3] | TGI (%), Day 14 of administration [1] [%] | Tumor volume (x ± S), Day 14 of administration [1] [mm^3] | Tumor volume (x ± S), Day 0 of administration [2] [mm^3] | Tumor volume (x ± S), Day 13 of administration [2] [mm^3] | TGI (%), Day 13 of administration [2] | relative tumor inhibition rate TGI (%) [2] [%] | Number of animals at the beginning/end of assay [3] | Average weight g (x ± S), Day 0 of administration [3] [g] | Average weight g (x ± S), Day 13 of administration [3] [g] | Weight change rate (%), Day 13 of administration [3] [%] | tolerability (weight loss, drug withdrawal, drug toxicity) [3] | Number of animals at the beginning/end of assay [4] | Average weight g (x ± S), Day 0 of administration [4] [g] | Average weight g (x ± S), Day 14 of administration [4] [g] | Weight change rate (%), Day 14 of administration [4] [%] | tolerability (weight loss, drug withdrawal, drug toxicity) [4] | IC50 (RET V804M) [nM] | IC50 (Ret wt) [nM]
CC(C)n1nc(-c2ccc(NC(=O)Nc3cc(C(F)(F)F)ccc3F)cc2)c2c(N)ncnc21 [AD80, reference compound] | 100.3 ± 4.33 | 46.4 | 821.7 ± 54.5 | 94.7 ± 5.24 | 185.7 ± 33.65 | 75.2% | 75.2 | 3/3 | 19.9 ± 0.44 | 20.7 ± 1.53 | 4.14 | well tolerated | 3/3 | 20.1 ± 0.81 | 22.6 ± 0.87 | 12.7 | well tolerated |  | 
CC(C)n1nc(-c2ccc(CC(=O)Nc3cc(C(C)(C)C(F)(F)F)on3)cc2)c2c(N)ncnc21 [Compound T-1, 2-(4-(4-amino-1-isopropyl-1H-pyrazolo[3,4-d]pyrimidin-3-yl)phenyl)-N-(5-(1,1,1-trifluoro-2-methylprop-2-yl)isoxazol-3-yl)acetamide] | 102.7 ± 6.06 | 90.3 | 233 ± 65.74 | 98 ± 3.61 | 63.7 ± 16.19 | 109.4%# | 109.4 | 3/3 | 20.3 ± 1.32 | 21.3 ± 1.19 | 4.90 | well tolerated | 3/3 | 20.9 ± 1.06 | 21.6 ± 1.05 | 3.4 | well tolerated | ≤ 0.5 | ≤ 0.5
CC(C)c1nc(-c2ccc(CC(=O)Nc3cc(C(C)(C)C(F)(F)F)on3)cc2)c2c(N)nccn12 [Compound T-4, 2-(4-(8-amino-3-isopropylimidazo[1,5-a]pyrazin-1-yl)phenyl)-N-(5-(1,1,1-trifluoro-2-methylprop-2-yl)isoxazol-3-yl)acetamide] |  |  |  |  |  |  |  |  |  |  |  |  |  |  |  |  |  | 1 to 10 | ≤ 0.5
CC(C)n1nc(-c2ccc(CC(=O)Nc3cc(C(C)(C)C(F)(F)F)on3)cn2)c2c(N)ncnc21 [Compound T-7, 2-(6-(4-amino-1-isopropyl-1H-pyrazolo[3,4-d]pyrimidin-3-yl)pyridin-3-yl)-N-(5-(1,1,1-trifluoro-2-methylprop-2-yl)isoxazol-3-yl)acetamide] |  |  |  |  |  |  |  |  |  |  |  |  |  |  |  |  |  | 1 to 10 | 1 to 10
CC(C)n1nc(-c2ccc(CC(=O)Nc3cc(C(C)(C)C(F)(F)F)no3)cc2)c2c(N)ncnc21 [Compound T-8, 2-(4-(4-amino-1-isopropyl-1H-pyrazolo[3,4-d]pyrimidin-3-yl)phenyl)-N-(3-(1,1,1-trifluoro-2-methylprop-2-yl)isoxazol-5-yl)acetamide] | 101.3 ± 4.33 | 95.4 | 163.7 ± 19.74 | 96.7 ± 6.74 | 90.7 ± 8.41 | 101.6%# | 101.6 | 3/3 | 19.6 ± 0.32 | 22.5 ± 0.73 | 14.40 | well tolerated | 3/3 | 20.5 ± 1.07 | 21.7 ± 0.82 | 6.0 | well tolerated |  | 
[2H]C([2H])([2H])C(n1nc(-c2ccc(CC(=O)Nc3cc(C(C)(C)C(F)(F)F)no3)cc2)c2c(N)ncnc21)C([2H])([2H])[2H] [Compound T-11, 2-(4-(4-amino-1-(propan-2-yl-1,1,1,3,3,3-d6)-1H-pyrazolo[3,4-d]pyrimidin-3-yl)phenyl)-N-(3-(1,1,1-trifluoro-2-methylpropan-2-yl)isoxazol-5-yl)acetamide] |  |  |  |  |  |  |  |  |  |  |  |  |  |  |  |  |  | 1 to 10 | 1 to 10
[2H]C([2H])([2H])C(n1cc(-c2ccc(CC(=O)Nc3cc(C(C)(C)C(F)(F)F)on3)cc2)c2c(N)ncnc21)C([2H])([2H])[2H] [Compound T-12, 2-(4-(4-amino-7-(propen-2-yl-1,1,1,3,3,d6)-7H-pyrrolo[2,3-d]pyrimidin-5-yl)phenyl)-N-(5-(1,1,1-trifluo-2-methylpropan-2-yl)isoxazol-3-yl)acetamide] |  |  |  |  |  |  |  |  |  |  |  |  |  |  |  |  |  | 1 to 10 | 10 to 50
